Assay results from US20250236617A1, “BICYCLIC TETRAHYDROTHIAZEPINE DERIVATIVES” (Hoffmann-La Roche Inc., priority 2022, published 2025).

Legend:
[1] = target: DGKzeta (hDGKzeta(1-928)-N-His) (Homo sapiens (Human), UniProt Q13574); assay: In vitro DGK inhibition assay, ADP-Glo (in house), DGKzeta; assay type: biochemical; conditions: DLG liposomes, 50 μM ATP, 2 nM enzyme, 1 hour reaction
DGK α kinase = DGK α kinase (Homo sapiens (Human), UniProt P23743); assay: In vitro DGK inhibition assay: ADP Glo run by Reaction Biology Corp., DGKalpha; assay type: biochemical; conditions: 2 nM enzyme, 500 uM DLG, 10-dose duplicate
Description: (§1) DGK α and ζ kinases use ATP to phosphorylate the substrate 1,2-dilauroyl-sn-glycerol (DLG). ATP is converted to ADP as a result of this enzymatic reaction.
(§2) After the kinase reaction, an ATP-depletion reagent is added to terminate the kinase reaction and deplete any remaining ATP, leaving only ADP. Second, a detection reagent is added to simultaneously convert ADP to ATP and allow the newly synthesized ATP to be converted to light using a coupled luciferase/luciferin reaction.
(§3) DGK α and ζ kinase ADP Glo assays were ran by Reaction Biology Corp., 1 Great Valley Parkway, Suite 2, Malvern, 19355, PA, USA. Information provided by the service provider are the following: DGK α and ζ kinases were used at 2 nM final concentration. Reactions were carried out at 50 µM ATP. 500 uM of the substrate DLG (Dilauroyl-sn-glycerol) was used.

[2] = target: DGKalpha (hDGKalpha(1-735)-N-His) (Homo sapiens (Human), UniProt P23743); assay: In vitro DGK inhibition assay, ADP-Glo (in house), DGKalpha; assay type: biochemical; conditions: DLG liposomes, 25 μM ATP, 4 nM enzyme, 1 hour reaction
DGK ζ kinase = DGK ζ kinase (Homo sapiens (Human), UniProt Q13574); assay: In vitro DGK inhibition assay: ADP Glo run by Reaction Biology Corp., DGKzeta; assay type: biochemical; conditions: 2 nM enzyme, 500 uM DLG, 10-dose duplicate
Description: as §1, §2, §3

MV-3 RFP cells = assay: T-cell-TCB-MV3 killing assay; assay type: cell-based; conditions: MV-3, 120 h, primary human T-cells + MCSP-TCB, 5 d; for Emax: 20 μM reference compound A1 = 100%, read-out: MSCP TCB killing MV-3 cells 5 d Emax; for EC50: read-out: MSCP TCB killing MV-3 cells 5 d EC50
Description: All culturing steps are executed at 5% CO2, 37° C. and 95% humidity.
MV-3 RFP cells are cultured in MV-3 medium (DMEM+10% FBS, 1× PenStrep and 0.5 μg/mL Puromycin) for at least 3 weeks. Cultured MV-3 cells at 80% confluency are washed once with PBS−− and trypsinized until detached. […] Cells are seeded with 100 μL/well into a 96-well plate (TTP, #92696), and placed for 40 minutes without moving at room temperature in order to achieve evenly distributed attachment of cells. Plates are then incubated until further use.
On the next day, expanded primary human T-cells are thawed and resuspended in T-cell medium to 4*10^6 cells/mL. For 3 hours, they are cultured in a 6-well plate with 6 mL per well at maximum. After culturing the T-cells, they are filtered through a cell strainer (Miltenyi Biotech, #130-041-407), counted again, and cell concentration is adjusted to 2*10^6 cells/mL.
MCSP-TCB or PBS are pre-diluted in T-cell medium (concentration depending on T-cell donor), 4 times more concentrated than the end-concentration. 60 μL/well of pre-dilutions are then distributed into a round bottom plate (Costar, #3799) according to plate layout. Compounds are added in a 9 pt dose response with the Tecan D300e Digital Dispenser, as well 4 times more concentrated than the end-concentration. DMSO concentration of all wells is adjusted to 0.8%, resulting in 0.2% as final concentration.
60 μL per well of T-cell suspension are added to the prepared round bottom plate and resuspended with a manual multichannel. 100 μL/well of the resuspended T-cell suspension including treatments are then transferred cautiously to the over-night cultured MV-3 cells according to plate layout. 100 μL T-cell medium only is added to the outer MV-3 wells only. Final compound DR is starting at 20 μM with a dilution factor of 3.333. Final TCB concentration is between […] and was determined for each T-cell donor individually by running TCB titrations. For each donor, a TCB concentration was chosen which corresponds to 10-20% of MV3 baseline cell killing in the absence of compound treatment. Positive control is the reference compound A1 which is added in a DR, as well as additional wells with only 20 μM. 20 μM of reference compound A1 represent the positive stimulator control, TCB only (DMSO wells) the neutral control.
After transfer of T-cells with treatment pre-dilutions, MV-3 cells are imaged by time-lapse microscopy using IncucyteZOOM™ (Essen BioScience, MI, USA). Imaging is performed every 3 hours for a total of 120 hours (10× objective, phase and red image channels, acquisition time 400 ms, Green/Red 4614 optical module). RFP object count per well is analysed in the IncucyteZOOM™ Software (Version 2019B Rev2) with a mask that was previously created and optimized for MV-3 cells. Raw data is exported as object count/well and values are normalized as % TCL compared to wells with MV-3 only, representing 100% growth and therefore 0% TCL.
Calculated % TCL values are analysed in Genedata Screener using Roche Normalization PCT_POS_CTRL with MCSP-TCB only set as Neutral Control and 20 μM of the reference compound A1 set as Stimulator Control/100%.

Sequence of DGKzeta (hDGKzeta(1-928)-N-His) (Q13574 whole entry): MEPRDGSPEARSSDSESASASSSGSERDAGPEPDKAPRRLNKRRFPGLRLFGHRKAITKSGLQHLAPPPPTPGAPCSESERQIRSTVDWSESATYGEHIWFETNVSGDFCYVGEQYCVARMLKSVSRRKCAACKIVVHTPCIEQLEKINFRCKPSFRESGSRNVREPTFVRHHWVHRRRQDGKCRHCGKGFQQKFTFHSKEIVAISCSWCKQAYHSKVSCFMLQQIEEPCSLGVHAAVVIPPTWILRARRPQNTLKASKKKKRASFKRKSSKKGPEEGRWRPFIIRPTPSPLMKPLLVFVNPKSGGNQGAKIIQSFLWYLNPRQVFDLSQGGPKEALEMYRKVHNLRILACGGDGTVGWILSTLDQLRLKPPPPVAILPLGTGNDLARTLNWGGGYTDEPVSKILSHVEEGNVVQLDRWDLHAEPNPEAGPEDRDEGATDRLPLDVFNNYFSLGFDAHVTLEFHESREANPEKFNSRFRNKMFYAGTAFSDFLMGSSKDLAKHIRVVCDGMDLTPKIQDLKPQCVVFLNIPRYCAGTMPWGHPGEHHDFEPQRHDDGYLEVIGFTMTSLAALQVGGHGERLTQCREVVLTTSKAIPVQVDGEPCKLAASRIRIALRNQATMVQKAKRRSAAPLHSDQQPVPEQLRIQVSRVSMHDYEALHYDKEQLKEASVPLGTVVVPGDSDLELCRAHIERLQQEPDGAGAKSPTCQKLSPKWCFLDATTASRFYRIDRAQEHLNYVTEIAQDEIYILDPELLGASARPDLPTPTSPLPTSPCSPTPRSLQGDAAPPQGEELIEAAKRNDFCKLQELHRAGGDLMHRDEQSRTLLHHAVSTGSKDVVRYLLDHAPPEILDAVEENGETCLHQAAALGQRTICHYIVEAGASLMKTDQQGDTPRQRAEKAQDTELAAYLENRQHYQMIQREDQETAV
Sequence of DGKalpha (hDGKalpha(1-735)-N-His) (P23743 whole entry): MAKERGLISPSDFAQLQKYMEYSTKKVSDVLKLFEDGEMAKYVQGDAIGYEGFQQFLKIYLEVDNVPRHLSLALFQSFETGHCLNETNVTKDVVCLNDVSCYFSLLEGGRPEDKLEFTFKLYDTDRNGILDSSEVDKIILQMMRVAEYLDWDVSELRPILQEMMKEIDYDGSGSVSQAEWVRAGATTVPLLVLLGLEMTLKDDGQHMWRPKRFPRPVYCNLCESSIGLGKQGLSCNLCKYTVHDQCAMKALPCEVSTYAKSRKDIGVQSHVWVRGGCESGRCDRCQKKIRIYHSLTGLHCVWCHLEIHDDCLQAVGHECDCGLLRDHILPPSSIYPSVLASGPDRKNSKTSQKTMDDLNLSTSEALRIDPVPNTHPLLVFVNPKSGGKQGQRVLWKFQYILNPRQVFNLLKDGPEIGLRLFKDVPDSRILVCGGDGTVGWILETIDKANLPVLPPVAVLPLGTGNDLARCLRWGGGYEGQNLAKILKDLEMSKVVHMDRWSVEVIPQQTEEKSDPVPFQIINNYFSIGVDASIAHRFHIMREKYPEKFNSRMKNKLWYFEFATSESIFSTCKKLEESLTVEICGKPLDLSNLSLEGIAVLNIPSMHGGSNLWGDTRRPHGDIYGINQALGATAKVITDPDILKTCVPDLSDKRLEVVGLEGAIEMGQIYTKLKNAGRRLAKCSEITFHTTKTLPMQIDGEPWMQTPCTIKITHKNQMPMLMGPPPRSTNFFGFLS
Sequence of DGK ζ kinase (Q13574 whole entry): as the sequence (Q13574 whole entry) above
Sequence of DGK α kinase (P23743 whole entry): as the sequence (P23743 whole entry) above

Row | Compound | IC50 [1] [nM] | IC50 (DGK α kinase) [nM] | IC50 [2] [nM] | IC50 (DGK ζ kinase) [nM] | Emax (MV-3 RFP cells) [%] | EC50 (MV-3 RFP cells) [nM]
1 | CC(C)(C)c1cnnc(-c2cc3c(cc2F)S(=O)(=O)C[C@H](N)C(=O)N3Cc2ccc(Cl)cc2)n1 [Example 11, (3R)-3-amino-7-(5-tert-butyl-1,2,4-triazin-3-yl)-5-[(4-chlorophenyl)methyl]-8-fluoro-1,1-dioxo-2,3-dihydro-1λ6,5-benzothiazepin-4-one] |  |  |  |  | 118 | 134
2 | CC(C)(C)c1cncc(-c2cc3c(cc2F)S(=O)(=O)C[C@H](N)C(=O)N3Cc2ccc(Cl)cc2)c1 [Example 2, (3R)-3-amino-7-(5-tert-butyl-3-pyridyl)-5-[(4-chlorophenyl)methyl]-8-fluoro-1,1-dioxo-2,3-dihydro-1λ6,5-benzothiazepin-4-one] |  |  |  |  | 85 | 78

Continued, in another order:

Row | IC50 [1] [nM] | IC50 (DGK α kinase) [nM] | IC50 [2] [nM] | IC50 (DGK ζ kinase) [nM] | Compound | Emax (MV-3 RFP cells) [%] | EC50 (MV-3 RFP cells) [nM]
3 | 9880 | 372 | 17200 | 310 | CC(C)(C#N)c1cncc(-c2cc3c(cc2F)S(=O)(=O)C[C@H](N)C(=O)N3Cc2ccc(-c3noc(C(F)(F)F)n3)cc2)c1 [Example 23, 2-[5-[(3R)-3-amino-8-fluoro-1,1,4-triketo-5-[4-[5-(trifluoromethyl)-1,2,4-oxadiazol-3-yl]benzyl]-2,3-dihydro-1λ6,5-benzothiazepin-7-yl]-3-pyridyl]-2-methyl-propionitrile] |  | 
4 | 43100 |  | 22200 |  | CC(C)(c1cncc(-c2cc3c(cc2F)S(=O)(=O)C[C@H](N)C(=O)N3Cc2ccc(-c3noc(C(F)(F)F)n3)cc2)c1)S(C)(=O)=O [Example 25, (3R)-3-amino-8-fluoro-1,1-diketo-7-[5-(1-mesyl-1-methyl-ethyl)-3-pyridyl]-5-[4-[5-(trifluoromethyl)-1,2,4-oxadiazol-3-yl]benzyl]-2,3-dihydro-1λ6,5-benzothiazepin-4-one] | 86 | 841
5 | 9910 |  | 3060 |  | COc1ccc(-c2ccc(CN3C(=O)[C@@H](N)CS(=O)(=O)c4cc(F)c(-c5cnc(C)c(C)c5)cc43)cc2)cc1 [Example 28, (3R)-3-amino-7-(5,6-dimethyl-3-pyridyl)-8-fluoro-5-[[4-(4-methoxyphenyl)phenyl]methyl]-1,1-dioxo-2,3-dihydro-1λ6,5-benzothiazepin-4-one] | 89 | 69
